Data: patent US8957035B2, “Toll like receptor (TLR) stimulation for ocular angiogenesis and macular degeneration” (University of Kentucky Research Foundation, priority 2006, dated 2015)
“Also recorded” adds a separate entry of the source. d = 2'-deoxy (DNA); r = 2'-OH (RNA)

What was measured:
Format in all cases: in vivo, mouse
[1] = test system: choroidal neovascularization; experiment: Laser-induced choroidal neovascularization (CNV) volume in mice; settings: for effect on choroidal neovascularization (CNV): FIG. 1, 0.2-2 μg, poly I:C vs control poly dI:dC, loxoribine vs control PBS; for ability to suppress CNV in IL-10−/− mice / ability to suppress CNV in IL-12−/− mice: FIG. 6, 2 μg; for ability to suppress CNV in IL-10−/− mice: IL-10−/− mice versus wild-type; for ability to suppress CNV in IL-12−/− mice: IL-12−/− mice versus wild-type; for CNV volume in wild-type mice versus PBS: FIG. 7/8, 0.25 μg into the vitreous humor immediately after laser injury; for CNV in TLR3−/− mice: FIG. 7, differences not statistically significant
Source text: All animal experiments were in accordance with the guidelines of the University of Kentucky IACUC and the Association for Research in Vision and Ophthalmology. Male C57BL/6J mice (Jackson Laboratory) between 6 and 8 weeks of age were used to minimize variability. The sources for the other mouse strains were: TLR3−/−, IL-10−/−, IL-12−/−, IFNγ−/− (Jackson Laboratory), IFNAR-1−/− (gift of H. Virgin, Washington University), TLR7−/− (gift of D. Golenback, University of Massachusetts), TLR9−/− (gift of E. Pearlman, Case Western Reserve University), VEGFR1 tyrosine kinase−/− (gift of M. Shibuya, University of Tokyo), Trif−/− (Trif deficient Lps2 mice from The Jackson Laboratories). For all procedures, anesthesia was achieved by intraperitoneal injection of 50 mg/kg ketamine hydrochloride (Ft. Dodge Animal Health) and 10 mg/kg xylazine (Phoenix Scientific), and pupils were dilated with topical 1% tropicamide (Alcon Laboratories).
(§1) Laser photocoagulation (532 nm, 200 mW, 100 ms, 75 μm) (OcuLight GL, Iridex Corporation) was performed (volume studies: 3/eye; protein analyses/flow cytometry: 12/eye) on both eyes of each animal to induce CNV (choroidal neovascularization). CNV volumes were measured by scanning laser confocal microscope (TCS SP, Leica) with 0.5% FITC-Griffonia simplicifolia Isolectin B4 (Vector Laboratories) or 0.5% FITC-rat antibody against mouse CD31 (BD Biosciences). Volumes obtained by lectin and CD31 staining were highly correlated (r^2=0.95).
Also tested were shorter non-targeted siRNAs: a 5+2 length nucleotide (5 nucleotides plus a 2 nucleotide overhang, with one strand having the sequence UAAGGdTdT and the other strand having the sequence CCUUAdTdT), and a 11+2 length nucleotide (11 nucleotides plus a 2 nucleotide overhang, with one strand having the sequence […]dTdT and the other strand having the sequence […]dTdT).
Because the probability of each laser lesion developing CNV is influenced by the group to which it belongs, the mouse, the eye, and the laser spot, the mean lesion volumes were compared using a linear mixed model with a split plot repeated measures design. The whole plot factor was the genetic group to which the animal belonged while the split plot factor was the eye. Statistical significance was determined at the 0.05 level. Post hoc comparison of means was constructed with a Bonferroni adjustment for multiple comparisons. ELISA measurements were compared by Student's t-test.

IL-12 = IL-12 protein ELISA in RPE/choroid after laser injury; settings: FIG. 4; 2 μg; wild-type mice; 1 day after laser injury
Protocol: as §1, with “(r^2=0.95). […]” for “(r^2=0.95).”
(§2) IL-10 and IL-12 protein levels were measured by ELISA (Peprotech) according to the manufacturer's instructions, as were IFN-α, IFN-β and IFN-γ (PBL InterferonSource). Total protein was measured according to Biorad.
(§3) Because the probability of each laser lesion developing CNV is influenced by the group to which it belongs, the mouse, the eye, and the laser spot, the mean lesion volumes were compared using a linear mixed model with a split plot repeated measures design. […] Statistical significance was determined at the 0.05 level. […]
IFN-α and IFN-β were measured by ELISA and normalized to total protein. […] IFN-γ was measured by ELISA (PBL InterferonSource) and IL-12 was measured by ELISA (eBioscience) and normalized to total protein. *P<0.05.

IL-10 = IL-10 protein ELISA in RPE/choroid after laser injury; settings: FIG. 4; 2 μg; wild-type mice; 3 days after laser injury
Protocol: as §1, with “(r^2=0.95). […]” for “(r^2=0.95).”
as §2, §3

[2] = dose-dependent, intravitreous immediately after laser injury, P<0.05

| Compound | effect on choroidal neovascularization in wild-type C57BL/6J mice ([1]; FIG. 14, intravitreous immediately after laser injury, dose-dependent, P<0.05) | effect on choroidal neovascularization (CNV) [1, 2] | ability to suppress CNV in IL-10−/− mice [1] | ability to suppress CNV in IL-12−/− mice [1] | IL-12 protein expression in the RPE/choroid (IL-12) | IL-10 protein expression in the RPE/choroid (IL-10) | CNV volume in wild-type mice versus PBS ([1]; P<0.05) | CNV in TLR3−/− mice ([1]; 0.25 μg intravitreous) | CNV in VEGFR1 tk−/− mice versus PBS ([1]; FIG. 8, 0.25 μg intravitreous, VEGFR1 tyrosine kinase−/− mice, P<0.05) |
| --- | --- | --- | --- | --- | --- | --- | --- | --- | --- |
| recombinant mouse IFNγ: recombinant mouse IFNγ (eBioscience) | reduced choroidal neovascularization |  |  |  |  |  |  |  |  |
| Poly I:C |  | reduced CNV | markedly reduced | markedly reduced | induced | induced |  |  |  |
| Bevasiranib: siRNA against VEGF-A; sense ACCUCACCAAGGCCAGCACdTdT, antisense GUGCUGGCCUUGGUGAGGUdTdT (sense ACCUCACCAAGGCCAGCACTT; antisense GUGCUGGCCUUGGUGAGGUTT; sugars from the 5' end r19 d2, backbone not given here) |  |  |  |  |  |  | essentially equally effective in suppressing CNV | non of them suppressed CNV |  |
| Sirna-027: siRNA against VEGFR-1; sense CUGAGUUUAAAAGGCACCCdTdT, antisense GGGUGCCUUUUAAACUCAGdTdT (sense CUGAGUUUAAAAGGCACCCTT; antisense GGGUGCCUUUUAAACUCAGTT; sugars from the 5' end r19 d2, backbone not given here) |  |  |  |  |  |  | essentially equally effective in suppressing CNV; also recorded: significantly lower than control | non of them suppressed CNV | suppressed CNV |
| C=CCn1c(=O)n([C@@H]2O[C@H](CO)[C@@H](O)[C@H]2O)c2nc(N)[nH]c(=O)c21 [Loxoribine] |  | reduced CNV | markedly reduced | markedly reduced | induced | induced |  |  |  |
